Measured values taken from patent publication US10232013B2, “Use of an antimicrobial peptide TP4 in treating a cancer” (Academia Sinica, priority 2016, dated 2019).
Where no end group is shown, it is not given here.

How the values were obtained:
MB231 tumors = tested on: MB231 tumors; set-up: species or system BALB/c nu/nu mice; settings: in vivo
Text: Female BALB/c nu/nu mice were obtained from BioLASCO Taiwan, Co., Ltd., and housed at the Laboratory Animal Facility, National Taiwan Ocean University, Keelung, Taiwan. Mice were maintained in pathogen-free sterile isolators, according to the guidelines of the Council of Agriculture (COA, Taiwan), and all food, water, caging, and bedding were sterilized before use. The animal protocol (103034) was approved by the Institutional Animal Care and Use Committee (IACUC) of the College of Life Science, National Taiwan Ocean University. For the TP4 treatment assay, nude mice with pre-growth MB231 tumors (n=5 for each group) were subcutaneously injected with TP4 (500 μg in 50 μL distilled water plus 10 μL KY jelly (Johnson & Johnson)) every two days for a total of fourteen times, by which time the tumors had reached an average volume of 30-50 mm^3 in size. Age-matched control nude mice without tumor xenografts were injected with KY jelly (10 μL plus 50 μL distilled water). Tumor size was calculated every two days, using the following formula: volume=[(height×length×width)×3.1416]/6. Mice were sacrificed 28 days after the beginning of TP4 treatment, and the tumors were harvested and weighed. Tumor samples were fixed with formalin and embedded with paraffin. Paraffin sections were stained by Hematoxylin & Eosin (H&E) and immunostained with Ki-67 antibody (Cell Signaling, clone D2H10, 1:100). […]

[1] = MTS cell viability assay, M10; assay type: cell-based; settings: human, M10 normal human mammary epithelial cells, mean±SD, read-out: Cellular toxicity (cell viability), MTS assay
Method: Cell-lines used in this study were purchased from the Bioresource Collection and Research Center (BCRC) in and the cells were cultured by the standard cell culture procedures and conditions provided by the BCRC. MB231 (BCRC 60425), MB453 (BCRC 60429), and HDF cells were cultured as previously described by Ting et al. MCF7 […] cells were maintained in α-MEM medium (ThermoFisher Scientific) supplemented with 2 mM L-glutamine, 10% FBS, 0.1 mM non-essential amino acids, 1 mM sodium pyruvate, and antibiotics (100 U mL^−1 penicillin G and […] streptomycin). M10 (BCRC 60197) cells were maintained in α-MEM medium (ThermoFisher Scientific) supplemented with 10% FBS and antibiotics. With the exception of MB231 and MB453, all cells were cultured at 37° C. with 5% CO2. For the cell viability and transfection assay, 1×10^4 cells [5×10^3 M10 cells were seeded and cultured for 48 h to allow the cells sufficient time for attachment] were seeded into the wells of a 96-well plate and cultured overnight. For the transfection assays, cells were transfected with 0.1-0.4 μg FOSB/FOSAB expression plasmid (Origene Technology Inc.) and cell viability was determined after 72 h. The transfection efficiencies (number of cells expressing eGFP/all cells) of the MB231 transfection assays were determined by observing ten randomly selected fields (from three independent transfections) of control GFP plasmid transfections under an inverted microscope (Olympus, IX71) coupled to a digital camera (Olympus DP80), using an […] (LCPlanFI 20×/0.40 Ph1). CellSens standard software (Olympus) was used for image acquisition. During the drug treatment assay, inhibitors (PD98059, BAPTA-AM, and AlP II) were added 30 min prior to TP4, and cell viability was determined at indicated time-points. Transfection was performed using LipofectAMINE™ 3000 (ThermoFisher Scientific), according to the manufacturer's recommendations. Knock-down cells were generated by transducing MB231 cells with pre-synthesized FOSB (or control) shRNA lentiviral particles (Santa Cruz Biotechnology), and selecting puromycin-resistant cells in accordance with the manufacturer's standard protocol. MB231 or M10 cells stably expressing eGFP or mOrange2 were generated through transfection with peGFP-puromycin or pmOrange2-C1 plasmid, followed by puromycin (5 μg mL^−1) or G418 (500 μg mL^−1) selection as described above.
Cell viability was quantitatively analyzed using the CellTiter-Glo® Luminescent Cell Viability Assay kit (ATP assay) and CellTiter 96® AQueous Non-Radioactive Cell Proliferation Assay kit (MTS assay) (Promega) in accordance with the manufacturer's protocol. For MTS assay, 1×10^4 cells were seeded into the wells of a 96-well plate and cultured overnight [5×10^3 M10 cells were seeded and cultured for 48 h to enable sufficient well attachment]. Cells were subsequently treated with different doses of TP4 (2.5-20 μg mL^−1) and harvested at the indicated time-points (3-24 h). Reaction mixtures (20 μL: MTS+PMS, using a ratio 20:1) were directly added to the cells, and the plates were incubated for 3 h at 37° C. Absorbance at 490 nm is directly proportional to the number of living cells in culture and was measured using a photometer (SpectraMax® i3, Molecular Devices). ATP assay was performed as previously described by Ting et al. Lactate dehydrogenase (LDH) assays were performed by quantitatively measuring cell lysis with a Cytotoxicity Detection Kit^PLUS (LDH) (Roche) in accordance with the manufacturer's protocol. The LDH standard was purchased from Cayman Chemical. Briefly, 1×10^4 cells were seeded into the wells of a 96-well plate and cultured overnight. Culture media were replaced with fresh medium containing 1% FBS and cells were subsequently treated with different doses of TP4 (2.5-20 μg mL^−1). Supernatants were harvested at 3 h. […]

## FIHHIIGGLFSAGKAIHRLIRRRRR [TP4, tilapia piscidin 4]
MB231 tumors
  mouse body weight: no significant differences
MB231 tumors; mouse
  body weight and adverse side-effects: without affecting body weight or causing adverse side-effects
[1]; M10, TP4 2.5 μg/mL, 3 h
  viability at 3 h, 2.5 μg/mL: 101 ± 4.23%
[1]; M10, TP4 2.5 μg/mL, 6 h
  viability at 6 h, 2.5 μg/mL: 94.8 ± 7.52%
[1]; M10, TP4 2.5 μg/mL, 12 h
  viability at 12 h, 2.5 μg/mL: 96 ± 5.66%
[1]; M10, TP4 2.5 μg/mL, 24 h
  viability at 24 h, 2.5 μg/mL: 94 ± 3.81%
[1]; M10, TP4 5.0 μg/mL, 3 h
  viability at 3 h, 5 μg/mL: 97.1 ± 4.9%
[1]; M10, TP4 5.0 μg/mL, 6 h
  viability at 6 h, 5 μg/mL: 92 ± 5.12%
[1]; M10, TP4 5.0 μg/mL, 12 h
  viability at 12 h, 5 μg/mL: 92.6 ± 4.99%
[1]; M10, TP4 5.0 μg/mL, 24 h
  viability at 24 h, 5 μg/mL: 91.2 ± 3.99%
[1]; M10, TP4 10.0 μg/mL, 3 h
  viability at 3 h, 10 μg/mL: 90.8 ± 4.76%
[1]; M10, TP4 10.0 μg/mL, 6 h
  viability at 6 h, 10 μg/mL: 84 ± 7.47%
[1]; M10, TP4 10.0 μg/mL, 12 h
  viability at 12 h, 10 μg/mL: 83.8 ± 4.27%
[1]; M10, TP4 10.0 μg/mL, 24 h
  viability at 24 h, 10 μg/mL: 80.7 ± 5.72%
[1]; M10, TP4 15.0 μg/mL, 3 h
  viability at 3 h, 15 μg/mL: 84.8 ± 5.83%
[1]; M10, TP4 15.0 μg/mL, 6 h
  viability at 6 h, 15 μg/mL: 78.9 ± 5.57%
[1]; M10, TP4 15.0 μg/mL, 12 h
  viability at 12 h, 15 μg/mL: 65.5 ± 6.68%
[1]; M10, TP4 15.0 μg/mL, 24 h
  viability at 24 h, 15 μg/mL: 58.4 ± 6.8%
[1]; M10, TP4 20.0 μg/mL, 3 h
  viability at 3 h, 20 μg/mL: 67.9 ± 5.16%
[1]; M10, TP4 20.0 μg/mL, 6 h
  viability at 6 h, 20 μg/mL: 60.3 ± 4.97%
[1]; M10, TP4 20.0 μg/mL, 12 h
  viability at 12 h, 20 μg/mL: 47.2 ± 8.42%
[1]; M10, TP4 20.0 μg/mL, 24 h
  viability at 24 h, 20 μg/mL: 44 ± 4.5%
